{
  "source": "patent US7202276B2",
  "about": "“Use of 13-HODE as a regulator of vascular biocompatibility and an inhibitor of cell hyperplasia” (1411198 Ontario Limited, priority 2000, dated 2007)",
  "key": {"[1]": {"test": "Cell free plasma 13-HODE levels in rabbits treated orally with 13-HODE", "assay_type": "in vivo, New Zealand white rabbits", "description": "(§1) New Zealand white rabbits (half males/half females; 2.5–2.9 kg) were used throughout. Rabbits were treated with 100, 400 or 1000 μg/kg/day of purified 13-HODE suspended in corn oil or ethyl-eicosapentaenoic acid (EPA), or with an equivolume of either suspending vehicle (total volume 1 ml) for 7 days. Serial blood samples were collected before, during and after treatment to assess the levels of 13-HODE in plasma. On day 7, the treatments were stopped. At that time, the rabbits were anaesthetised with a combination of Atravet, Ketamine, Vetrepham and glycopyrolate, given subcutaneously. Both carotid arteries of anaesthetised rabbits were isolated between 2 temporary ligatures, first by applying the proximal ligature, then allowing the blood to drain from the segment, and then applying the distal ligature. A 24-gauge angiocath attached to tubing filled with sterile saline and connected to a pressure manometer, was inserted into the isolated segment. Then the segment was filled with the saline to a pressure of 600 mm Hg which was maintained for 5 minutes. The pressure was relieved, and the angiocath and ligatures were removed, thereby allowing for blood flow restoration. Cessation of bleeding from the needle puncture site was achieved within 3 minutes without any manual manipulation. The incisions were sutured closed with 000 proline. The rabbits were injected intramuscularly with Temgesic to minimize any pain and with 12.5 mg Baytril as an antibiotic, and then allowed to recover. This injury procedure results in endothelial denudation and the exposure of a thrombogenic surface within 1 hour of restoration of blood flow, followed by SMC proliferation and intimal hyperplasia, which plateaus at □ 4 weeks and which is sustained for ≧12 weeks (Buchanan M R, Brister S J: 1998: Buchanan M R et al. 1999).\nTwo, four or twelve weeks later, the rabbits were re-anaesthetised and their injured carotid arteries were again isolated. Segments of injured and uninjured carotid artery were harvested and processed histologically to assess VW hyperplasia. Other VW segments and blood samples were collected and processed for VW and plasma 13-HODE levels."}, "[2]": {"test": "Vessel wall (VW) 13-HODE levels in rabbits treated orally with 13-HODE", "assay_type": "in vivo, New Zealand white rabbits", "details": "suspended in ethyl-EPA, all treatment levels", "description": "as §1, with “The rabbits were injected intramuscularly with Temgesic to minimize any pain and with 12.5 mg Baytril as an antibiotic, and then allowed to recover. This injury procedure results in endothelial denudation and the exposure of a thrombogenic surface within 1 hour of restoration of blood flow, followed by SMC proliferation and intimal hyperplasia, which plateaus at □ 4 weeks and which is sustained for ≧12 weeks (Buchanan M R, Brister S J: 1998: Buchanan M R et al. 1999).” left out"}, "[3]": {"tested_on": "VW intimal hyperplasia of injured carotid arteries", "test": "Intimal hyperplasia after carotid artery pressure injury in rabbits", "assay_type": "in vivo, New Zealand white rabbits", "details": "7 day course of 100 μg/kg/day, in either corn oil or ethyl-EPA, p<0.001", "description": "as §1, with “The rabbits were injected intramuscularly with Temgesic to minimize any pain and with 12.5 mg Baytril as an antibiotic, and then allowed to recover. This injury procedure results in endothelial denudation and the exposure of a thrombogenic surface within 1 hour of restoration of blood flow, followed by SMC proliferation and intimal hyperplasia, which plateaus at □ 4 weeks and which is sustained for ≧12 weeks (Buchanan M R, Brister S J: 1998: Buchanan M R et al. 1999).” left out"}, "[4]": {"test": "Stability of 13-HODE dosage forms", "assay_type": "physicochemical", "details": "dissolved into a triglyceride oil carrier or an ester", "description": "A real problem is presented by the fact that active daily doses of 13-HODE are in the 50 to 1,000 μg/kg/day range. […] That translates into a 7 mg/day dose for a 70 kg person. Since doses for humans are often considerably lower than doses for animals because of a weight/body surface area scaling, a daily dose of as little as 5 mg or less is really possible. Formulating an oily liquid is such small doses is a problem. It could be absorbed into tabletting materials and tabletted and coated, or micro-encapsulated by methods well known to those skilled in the art. […] Other triglyceride oils such as vegetable oil, including sunflower, safflower, soy, evening primrose, borage, coconut or palm oil, or cottonseed, rapeseed, olive, fish body or fish liver oils may all be used for this purpose. Particularly useful esters for this purpose are esters of fatty acids with 16–26 carbon atoms and one or more double bonds in the chain."}, "[5]": {"details": "stroke, myocardial infarction, transient ischemic attacks; cited from earlier work"}, "[6]": {"details": "3.2 gm daily (20 capsules) for 30 days; cited from earlier work"}, "[7]": {"tested_on": "platelet/injured VW interactions", "details": "3.2 gm daily for 30 days; cited from earlier work"}, "Sarcoma 180 tumors": {"tested_on": "Sarcoma 180 tumors", "details": "given orally; cited from earlier work"}, "[8]": {"tested_on": "platelet/injured VW interactions", "details": "dose comparable to that used clinically; cited from earlier work"}, "intimal SMC hyperplasia": {"tested_on": "intimal SMC hyperplasia", "details": "1 mg/kg/day for 7 days before VW injury, 4 weeks after VW injury; cited from earlier work"}},
  "note": "Where two headings read alike, the source gives them in different places.",
  "data": [
    {"smiles": "CCCCCC(O)/C=C/C=C\\CCCCCCCC(=O)O", "note": "(stereo not shown) [13-HODE, 13-hydroxyoctadeca-9Z, 11E-dienoic acid]", "values": [
      {"measurement": "time to significantly elevated cell-free plasma 13-HODE level", "setting": "[1]; 1,000 μg/kg/day oral", "value": "≤ 3", "unit": "days"},
      {"measurement": "time cell-free plasma 13-HODE level remained elevated", "setting": "[1]; 1,000 μg/kg/day oral, treatment stopped after 7 days", "value": 4, "unit": "weeks"},
      {"measurement": "effect on plasma 13-HODE levels of increasing the dose", "setting": "[1]; 1,000 μg/kg/day vs 100 μg/kg/day, corn oil", "value": "no further effect"},
      {"measurement": "increase in the plasma 13-HODE levels", "setting": "[1]; after 7 days of oral 100 μg/kg/day, suspended in corn oil", "value": "three-fold increase"},
      {"measurement": "half life", "setting": "[1]; orally administered", "value": "long half life"},
      {"measurement": "oral absorption", "setting": "[1]; orally administered", "value": "well absorbed"},
      {"measurement": "absolute levels of plasma 13-HODE, compared with corn oil", "setting": "[1]; suspended in ethyl-EPA, all treatment levels", "value": "lower in all treatment levels tested"},
      {"measurement": "absolute levels of VW 13-HODE, compared with corn oil", "setting": "[2]", "value": "somewhat lower at all treatment levels tested"},
      {"measurement": "intimal VW hyperplasia", "setting": "[3]", "value": "significantly inhibited"},
      {"measurement": "stability of the dosage form", "setting": "[4]", "value": "stable without degradation"}
    ]},
    {"smiles": "CC(=O)Oc1ccccc1C(=O)O", "note": "[ASA]", "values": [
      {"measurement": "overall risk reduction", "setting": "[5]", "value": "~25", "unit": "%"}
    ]},
    {"smiles": "CCCCC/C=C\\C/C=C\\CCCCCCCC(=O)O", "note": "[linoleic acid, Octa-deca-9Z, 12Z-dienoic acid]", "values": [
      {"measurement": "increase in VW 13-HODE levels", "setting": "[6]", "value": 2, "unit": "fold"},
      {"measurement": "decrease in platelet/injured VW interactions", "setting": "[7]", "value": "> 2", "unit": "fold"}
    ]},
    {"smiles": "CCCCC/C=C\\C=C\\C(O)CCCCCCCC(=O)O", "note": "(stereo not shown) [9-HODE, 9-hydroxy-10(E)-12(Z) octadecadienoic acid]", "values": [
      {"measurement": "minimum effective dose for inhibiting the rate of tumour growth", "setting": "Sarcoma 180 tumors", "value": 55, "unit": "mg/kg/day"}
    ]},
    {"smiles": "OCCN(CCO)c1nc(N2CCCCC2)c2nc(N(CCO)CCO)nc(N3CCCCC3)c2n1", "note": "[Persantine]", "values": [
      {"measurement": "decrease in platelet/injured VW interactions", "setting": "[8]", "value": "> 2", "unit": "fold"},
      {"measurement": "SMC hyperplasia", "setting": "intimal SMC hyperplasia", "value": "inhibited"}
    ]}
  ]
}
